# Tests used:
# Test in all cases: viability relative to DMSO control (fraction); higher = less drug effect (more viable cells)
# Conditions in all cases: 48 h
# Etoposide = compound: COc1cc([C@@H]2c3cc4c(cc3[C@@H](O[C@@H]3O[C@@H]5CO[C@@H](C)O[C@H]5[C@H](O)[C@H]3O)[C@H]3COC(=O)[C@H]23)OCO4)cc(OC)c1O [Etoposide]
# Method in brief: (§1)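 Compounds were pre-plated at five concentrations, one well each, in 384-well plates, and primary mononuclear tumour cells were plated on them at 4 × 10^4 cells per well. The cells, fresh or cryopreserved, had been Ficoll-isolated from blood or bone marrow or taken from processed lymph node. After 48 h at 37 °C and 5% CO2 in RPMI-1640 with penicillin/streptomycin, L-glutamine and human serum, viability was read as CellTiter-Glo luminescence relative to the median of 16 inner DMSO wells.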
# Roscovitine = compound: CC[C@H](CO)Nc1nc(NCc2ccccc2)c2ncn(C(C)C)c2n1 [Roscovitine]
# Method in brief: as §1
# Pomalidomide = compound: Nc1cccc2c1C(=O)N(C1CCC(=O)NC1=O)C2=O [Pomalidomide]
# Method in brief: as §1
# Bendamustine = compound: Cn1c(CCCC(=O)O)nc2cc(N(CCCl)CCCl)ccc21 [Bendamustine]
# Method in brief: as §1
# Chlorambucil = compound: O=C(O)CCCc1ccc(N(CCCl)CCCl)cc1 [Chlorambucil]
# Method in brief: as §1
# Filgotinib = compound: O=C(Nc1nc2cccc(-c3ccc(CN4CCS(=O)(=O)CC4)cc3)n2n1)C1CC1 [Filgotinib]
# Method in brief: as §1
# [1] = compound: O=C(NO)c1cccc(C(=O)NCCc2ccccc2)c1
# Method in brief: as §1
# Palbociclib = compound: CC(=O)c1c(C)c2cnc(Nc3ccc(N4CCNCC4)cn3)nc2n(C2CCCC2)c1=O [Palbociclib]
# Method in brief: as §1
# Duvelisib = compound: C[C@H](Nc1ncnc2nc[nH]c12)c1cc2cccc(Cl)c2c(=O)n1-c1ccccc1 [Duvelisib]
# Method in brief: as §1
# Navitoclax = compound: CC1(C)CCC(c2ccc(Cl)cc2)=C(CN2CCN(c3ccc(C(=O)NS(=O)(=O)c4ccc(N[C@H](CCN5CCOCC5)CSc5ccccc5)c(S(=O)(=O)C(F)(F)F)c4)cc3)CC2)C1 [Navitoclax]
# Method in brief: as §1
# Selinexor = compound: O=C(/C=C\n1cnc(-c2cc(C(F)(F)F)cc(C(F)(F)F)c2)n1)NNc1cnccn1 [Selinexor]
# Method in brief: as §1
# Thalidomide = compound: O=C1CCC(N2C(=O)c3ccccc3C2=O)C(=O)N1 [Thalidomide]
# Method in brief: as §1
# Barasertib = compound: CCN(CCCOc1ccc2c(Nc3cc(CC(=O)Nc4cccc(F)c4)[nH]n3)ncnc2c1)CCOP(=O)(O)O [Barasertib]
# Method in brief: as §1
# I-BET-762 = compound: CCNC(=O)C[C@@H]1N=C(c2ccc(Cl)cc2)c2cc(OC)ccc2-n2c(C)nnc21 [I-BET-762]
# Method in brief: as §1
# [2] = compound: O=C(Nc1ccc2[nH]nc(-c3ccncc3)c2c1)[C@@H]1CCN(CC(=O)N2CCN(c3ccc(-c4ncccn4)cc3)CC2)C1
# Method in brief: as §1
test system,measurement,setting,value
primary ALL patient cells (S048),viability,Etoposide; 0.032 µM,0.961
same,viability,Etoposide; 0.16 µM,0.915
same,viability,Etoposide; 0.8 µM,0.771
same,viability,Etoposide; 4 µM,0.299
same,viability,Etoposide; 20 µM,0.0679
same,viability,Roscovitine; 0.032 µM,0.65
same,viability,Roscovitine; 0.16 µM,0.614
same,viability,Roscovitine; 0.8 µM,0.607
same,viability,Roscovitine; 4 µM,0.579
same,viability,Roscovitine; 20 µM,0.599
same,viability,Pomalidomide; 0.0032 µM,0.773
same,viability,Pomalidomide; 0.016 µM,0.695
same,viability,Pomalidomide; 0.08 µM,0.517
same,viability,Pomalidomide; 0.4 µM,0.394
same,viability,Pomalidomide; 2 µM,0.377
same,viability,Bendamustine; 0.032 µM,0.981
same,viability,Bendamustine; 0.16 µM,1.03
same,viability,Bendamustine; 0.8 µM,0.982
same,viability,Bendamustine; 4 µM,0.747
same,viability,Bendamustine; 20 µM,0.15
same,viability,Chlorambucil; 0.032 µM,1.04
same,viability,Chlorambucil; 0.16 µM,0.959
same,viability,Chlorambucil; 0.8 µM,0.967
same,viability,Chlorambucil; 4 µM,0.494
same,viability,Chlorambucil; 20 µM,0.0459
same,viability,Filgotinib; 0.024 µM,0.893
same,viability,Filgotinib; 0.12 µM,0.912
same,viability,Filgotinib; 0.6 µM,0.903
same,viability,Filgotinib; 3 µM,0.917
same,viability,Filgotinib; 15 µM,0.541
same,viability,[1]; 0.024 µM,0.897
same,viability,[1]; 0.12 µM,0.878
same,viability,[1]; 0.6 µM,0.886
same,viability,[1]; 3 µM,0.828
same,viability,[1]; 15 µM,0.65
same,viability,Palbociclib; 0.024 µM,0.87
same,viability,Palbociclib; 0.12 µM,0.824
same,viability,Palbociclib; 0.6 µM,0.708
same,viability,Palbociclib; 3 µM,0.471
same,viability,Palbociclib; 15 µM,0.247
same,viability,Duvelisib; 0.0016 µM,0.805
same,viability,Duvelisib; 0.008 µM,0.76
same,viability,Duvelisib; 0.04 µM,0.719
same,viability,Duvelisib; 0.2 µM,0.679
same,viability,Duvelisib; 1 µM,0.599
same,viability,Navitoclax; 0.0032 µM,0.862
same,viability,Navitoclax; 0.016 µM,0.514
same,viability,Navitoclax; 0.08 µM,0.0937
same,viability,Navitoclax; 0.4 µM,0.0489
same,viability,Navitoclax; 2 µM,0.0282
same,viability,Selinexor; 0.008 µM,0.335
same,viability,Selinexor; 0.04 µM,0.341
same,viability,Selinexor; 0.2 µM,0.366
same,viability,Selinexor; 1 µM,0.378
same,viability,Selinexor; 5 µM,0.285
same,viability,Thalidomide; 0.032 µM,0.899
same,viability,Thalidomide; 0.16 µM,0.849
same,viability,Thalidomide; 0.8 µM,0.866
same,viability,Thalidomide; 4 µM,0.829
same,viability,Thalidomide; 20 µM,0.846
same,viability,Barasertib; 0.0008 µM,0.776
same,viability,Barasertib; 0.004 µM,0.774
same,viability,Barasertib; 0.02 µM,0.744
same,viability,Barasertib; 0.1 µM,0.775
same,viability,Barasertib; 0.5 µM,0.753
same,viability,I-BET-762; 0.008 µM,0.97
same,viability,I-BET-762; 0.04 µM,1.11
same,viability,I-BET-762; 0.2 µM,1.1
same,viability,I-BET-762; 1 µM,0.639
same,viability,I-BET-762; 5 µM,0.327
same,viability,[2]; 0.008 µM,0.405
same,viability,[2]; 0.04 µM,0.334
same,viability,[2]; 0.2 µM,0.255
same,viability,[2]; 1 µM,0.191
same,viability,[2]; 5 µM,0.197
primary AML patient cells (S011),viability,Etoposide; 0.032 µM,1.05
same,viability,Etoposide; 0.16 µM,0.974
same,viability,Etoposide; 0.8 µM,0.893
same,viability,Etoposide; 4 µM,0.823
same,viability,Etoposide; 20 µM,0.231
same,viability,Roscovitine; 0.032 µM,0.987
same,viability,Roscovitine; 0.16 µM,0.928
same,viability,Roscovitine; 0.8 µM,1.52
same,viability,Roscovitine; 4 µM,1.12
same,viability,Roscovitine; 20 µM,0.708
same,viability,Pomalidomide; 0.0032 µM,0.982
same,viability,Pomalidomide; 0.016 µM,0.953
same,viability,Pomalidomide; 0.08 µM,0.857
same,viability,Pomalidomide; 0.4 µM,0.725
same,viability,Pomalidomide; 2 µM,0.757
same,viability,Bendamustine; 0.032 µM,1.04
same,viability,Bendamustine; 0.16 µM,0.98
same,viability,Bendamustine; 0.8 µM,0.948
same,viability,Bendamustine; 4 µM,0.828
same,viability,Bendamustine; 20 µM,0.384
same,viability,Chlorambucil; 0.032 µM,0.945
same,viability,Chlorambucil; 0.16 µM,1.02
same,viability,Chlorambucil; 0.8 µM,0.839
same,viability,Chlorambucil; 4 µM,0.577
same,viability,Chlorambucil; 20 µM,0.178
same,viability,Filgotinib; 0.024 µM,0.972
same,viability,Filgotinib; 0.12 µM,1
same,viability,Filgotinib; 0.6 µM,0.981
same,viability,Filgotinib; 3 µM,0.697
same,viability,Filgotinib; 15 µM,1.25
same,viability,[1]; 0.024 µM,0.93
same,viability,[1]; 0.12 µM,0.971
same,viability,[1]; 0.6 µM,1.04
same,viability,[1]; 3 µM,0.939
same,viability,[1]; 15 µM,0.936
same,viability,Palbociclib; 0.024 µM,1.01
same,viability,Palbociclib; 0.12 µM,0.898
same,viability,Palbociclib; 0.6 µM,1.21
same,viability,Palbociclib; 3 µM,0.642
same,viability,Palbociclib; 15 µM,0.0992
same,viability,Duvelisib; 0.0016 µM,0.965
same,viability,Duvelisib; 0.008 µM,0.886
same,viability,Duvelisib; 0.04 µM,0.81
same,viability,Duvelisib; 0.2 µM,0.844
same,viability,Duvelisib; 1 µM,0.701
same,viability,Navitoclax; 0.0032 µM,0.98
same,viability,Navitoclax; 0.016 µM,1.49
same,viability,Navitoclax; 0.08 µM,0.178
same,viability,Navitoclax; 0.4 µM,0.0603
same,viability,Navitoclax; 2 µM,0.0418
same,viability,Selinexor; 0.008 µM,0.865
same,viability,Selinexor; 0.04 µM,0.813
same,viability,Selinexor; 0.2 µM,0.739
same,viability,Selinexor; 1 µM,0.144
same,viability,Selinexor; 5 µM,0.151
same,viability,Thalidomide; 0.032 µM,0.969
same,viability,Thalidomide; 0.16 µM,1.01
same,viability,Thalidomide; 0.8 µM,0.948
same,viability,Thalidomide; 4 µM,0.895
same,viability,Thalidomide; 20 µM,0.976
same,viability,Barasertib; 0.0008 µM,0.891
same,viability,Barasertib; 0.004 µM,0.937
same,viability,Barasertib; 0.02 µM,0.826
same,viability,Barasertib; 0.1 µM,0.856
same,viability,Barasertib; 0.5 µM,1.02
same,viability,I-BET-762; 0.008 µM,0.958
same,viability,I-BET-762; 0.04 µM,1.16
same,viability,I-BET-762; 0.2 µM,0.864
same,viability,I-BET-762; 1 µM,0.68
same,viability,I-BET-762; 5 µM,0.639
same,viability,[2]; 0.008 µM,0.978
same,viability,[2]; 0.04 µM,0.916
same,viability,[2]; 0.2 µM,0.904
same,viability,[2]; 1 µM,0.872
same,viability,[2]; 5 µM,0.751
primary AML patient cells (S009),viability,Etoposide; 0.032 µM,1.02
same,viability,Etoposide; 0.16 µM,1.02
same,viability,Etoposide; 0.8 µM,1.1
same,viability,Etoposide; 4 µM,0.781
same,viability,Etoposide; 20 µM,0.625
same,viability,Roscovitine; 0.032 µM,0.946
same,viability,Roscovitine; 0.16 µM,1.03
same,viability,Roscovitine; 0.8 µM,1.05
same,viability,Roscovitine; 4 µM,1.01
same,viability,Roscovitine; 20 µM,0.642
same,viability,Pomalidomide; 0.0032 µM,0.914
same,viability,Pomalidomide; 0.016 µM,0.885
same,viability,Pomalidomide; 0.08 µM,0.934
same,viability,Pomalidomide; 0.4 µM,0.827
same,viability,Pomalidomide; 2 µM,0.974
same,viability,Bendamustine; 0.032 µM,1
same,viability,Bendamustine; 0.16 µM,0.967
same,viability,Bendamustine; 0.8 µM,1.01
same,viability,Bendamustine; 4 µM,0.776
same,viability,Bendamustine; 20 µM,0.656
same,viability,Chlorambucil; 0.032 µM,0.987
same,viability,Chlorambucil; 0.16 µM,0.863
same,viability,Chlorambucil; 0.8 µM,0.906
same,viability,Chlorambucil; 4 µM,0.594
same,viability,Chlorambucil; 20 µM,0.505
same,viability,Filgotinib; 0.024 µM,1.05
same,viability,Filgotinib; 0.12 µM,0.954
same,viability,Filgotinib; 0.6 µM,1
same,viability,Filgotinib; 3 µM,0.949
same,viability,Filgotinib; 15 µM,4.75
same,viability,[1]; 0.024 µM,0.959
same,viability,[1]; 0.12 µM,1.03
same,viability,[1]; 0.6 µM,1.1
same,viability,[1]; 3 µM,1.03
same,viability,[1]; 15 µM,0.998
same,viability,Palbociclib; 0.024 µM,0.962
same,viability,Palbociclib; 0.12 µM,0.99
same,viability,Palbociclib; 0.6 µM,0.875
same,viability,Palbociclib; 3 µM,0.814
same,viability,Palbociclib; 15 µM,0.436
same,viability,Duvelisib; 0.0016 µM,0.879
same,viability,Duvelisib; 0.008 µM,0.928
same,viability,Duvelisib; 0.04 µM,0.929
same,viability,Duvelisib; 0.2 µM,0.895
same,viability,Duvelisib; 1 µM,0.829
same,viability,Navitoclax; 0.0032 µM,0.974
same,viability,Navitoclax; 0.016 µM,0.693
same,viability,Navitoclax; 0.08 µM,0.575
same,viability,Navitoclax; 0.4 µM,0.415
same,viability,Navitoclax; 2 µM,0.378
same,viability,Selinexor; 0.008 µM,0.911
same,viability,Selinexor; 0.04 µM,0.798
same,viability,Selinexor; 0.2 µM,0.71
same,viability,Selinexor; 1 µM,0.535
same,viability,Selinexor; 5 µM,0.498
same,viability,Thalidomide; 0.032 µM,0.945
same,viability,Thalidomide; 0.16 µM,0.982
same,viability,Thalidomide; 0.8 µM,0.835
same,viability,Thalidomide; 4 µM,0.795
same,viability,Thalidomide; 20 µM,0.838
same,viability,Barasertib; 0.0008 µM,1.06
same,viability,Barasertib; 0.004 µM,0.985
same,viability,Barasertib; 0.02 µM,0.935
same,viability,Barasertib; 0.1 µM,0.918
same,viability,Barasertib; 0.5 µM,0.856
same,viability,I-BET-762; 0.008 µM,0.988
same,viability,I-BET-762; 0.04 µM,0.936
same,viability,I-BET-762; 0.2 µM,0.83
same,viability,I-BET-762; 1 µM,0.656
same,viability,I-BET-762; 5 µM,0.48
same,viability,[2]; 0.008 µM,0.939
same,viability,[2]; 0.04 µM,0.984
same,viability,[2]; 0.2 µM,0.974
same,viability,[2]; 1 µM,0.985
same,viability,[2]; 5 µM,0.864

# From the supplement of paper PMC10733146
